# From EP3454861B1, “BENZOXAZINE OR QUINAZOLINE DERIVATIVES FOR USE IN THE TREATMENT OF ALZHEIMER'S DISEASE” (Biocodex, priority 2016, dated 2017)
# Tested on: protéine Tau
# Assay: Tau hyperphosphorylation in cortical neurons after Aβ1-42
# Assay type: cell-based, rats
# Conditions: Rattus norvegicus, Cortical neurone, Aβ1-42 2,5 µM, 16 h (Aβ1-42 alone 183%), read-out: hyperphosphorylation de Tau
# Procedure: Des neurones corticaux de rats sont mis en culture comme dans la méthode décrite par Singer (1999) J. Neurosci. 19:2455-2463. Des rats femelles enceintes de 15 jours sont tuées par dislocation des cervicales (Rats Wistar, Janvier) et le fœtus est retiré de l'utérus. Les cortex sont prélevés et placés dans un milieu glacé de Leibovitz (L15, Panbiotech, Réf : P04-27055, lot : 9310614) contenant 2% de pénicilline (10 000 U/ml) et de streptomycine (10 mg/ml) (PS, Panbiotec, Réf : P06-07100, lot : 48101114) et 1% de sérum-albumine bovine (BSA, Panbiotech, Réf : P06-1391100, lot : H140603). Les cortex sont dissociés par trypsination (0,05% Panbiotech, Réf : P10-023100, lot : 5890314) pendant 20 minutes à 37°C. La réaction est stoppée par addition d'un milieu Eagle modifié de Dulbecco (DMEM, Panbiotech, réf P04-03600, lot : 9670913) contenant de la DNase I grade Il (0,1 mg/ml Panbiotech, Réf : P60-37780100, lot : H140508) et 10 % de sérum de veau fœtal (FCS, Invitrogen, Réf : 10270 à 098, lot : 41Q4120K). Les cellules sont dissociées mécaniquement par 3 passages à travers une pipette de 10 ml. Les cellules sont ensuite centrifugées à 515 g pendant 10 minutes à 4°C. Le surnageant est éliminé et les cellules sont remises en suspension dans un milieu de culture Neurobasal (Nb, Invitrogen, Réf : 21103, lot : 1608692) supplémenté avec 2% de B27 (Invitrogen, Réf : 17504, lot : 1589889), 2 mM de L-glutamine (Panbiotech, Réf : P04-80100, lot : 6620314), 2% de la solution PS et 10 ng/ml de facteur neurotrophique dérivé du cerveau (BDNF, PanBiotech, Réf : CB-1115002, lot : 4810114). Les cellules sont ensemencées à une densité de 30 000 cellules/puits dans des plaques de 96 puits pré-enduites de poly-L-lysine (10 ng/ml, Greiner Réf : 655930, lot : E14021HD) et cultivées à 37 °C dans une atmosphère humidifiée avec 95% d'air et 5% de CO2 pour l'évaluation de la survie des neurones (analyse de MAP2 par immuno-coloration) (6 puits/condition, 1 culture).
# La préparation du peptide amyloïde β1-42 (Aβ1-42) est réalisée en suivant la procédure par Callizot et al. (2013) Neurosci. Res. 91:706-16. […]
compound,measurement,setting,value
"CCNC1=Nc2ccc(Cl)cc2C(C)(c2ccccc2)O1 (stereo not drawn) [Etifoxine, chlorhydratede 6-chloro-2-éthylamino-4-méthyl-4-phényl-4H-[3,1]benzoxazine]",activity at 1 µM,étifoxine 1 µM,114%
same,activity at 3 µM,étifoxine 3 µM,104%
same,activity at 10 µM,étifoxine 10 µM,97.4%
